The target of one assay is CDK4/Cyclin D1 (Homo sapiens (Human), UniProt P11802). The experiment in a line: CDK4/Cyclin D1 mobility shift assay. To be noted: activated CDK4/Cyclin D1, 3.5 mM ATP, Morrison fit; read-out: CDK4D1 Ki. The format is biochemical. How it is done: The purpose CDK4/Cyclin D1 assay is to evaluate the inhibition (% inhibition, Kiapp and Ki values) in the presence of small molecule inhibitors by using a fluorescence based microfluidic mobility shift assay. […] The mobility shift assay electrophoretically separates the fluorescently labeled peptides (substrate and phosphorylated product) following the kinase reaction. Both substrate and product are measured and the ratio of these values is used to generate % Conversion of substrate to product by the LabChip EZ Reader.
The reaction was stopped after 195 minutes by the addition of 50 μL of 30 mM EDTA. Ki determinations were made from a plot of the fractional velocity as a function of inhibitor concentration fit to the Morrison equation with the enzyme concentration as a variable.
(§1) For CDK4 and CDK6 mobility shift assays, see also Morrison, J. F. (1969) Kinetics of the reversible inhibition of enzyme-catalysed reactions by tight-binding inhibitors, Biochimica et biophysica acta 185, 269-286; and Murphy, D. J. (2004) Determination of accurate KI values for tight-binding enzyme inhibitors: an in silico study of experimental error and assay design, Analytical biochemistry 327, 61-67.

Another assay concerns the target CDK4 (Homo sapiens (Human), UniProt P11802). The experiment in a line: Phospho-Serine 795 Rb ELISA assay in JEKO-1 cells. The format is cell-based. Conditions: overnight treatment, phospho-Rb S795, read-out: CDK4 pRB S795 ELISA JEKO-1 cells IC50. How it is done:
JEKO-1 or MV4-11 cells were seeded at 15,000 or 20,000 cells per well, respectively, in 100 μL growth media and allowed to incubate at 37° C. with 5% CO2 overnight. The following day, compounds were serially diluted from a 10 mM top dose for an 11-point 3-fold dilution curve in DMSO. Compounds were intermediately diluted 1:200 into growth media prior to diluting 1:5 on cells for final concentration 10 μM to 0.1 nM in 0.1% DMSO on cells. JEKO-1 and MV4-11 cells were treated were treated overnight, at 37° C. with 5% CO2. Cells were lysed in 100 μL/well CST lysis buffer on ice and transferred to pre-coated and blocked anti-phospho-Ser795 Rb ELISA plates for overnight incubation at 4° C. Plates were washed to remove residual, unbound cellular proteins and total Rb detection antibody added for 90 minutes at 37° C. Following wash to remove unbound total Rb antibody, the HRP tagged antibody was allowed to bind for 30 minutes at 37° C. Following wash to remove unbound HRP antibody, Glo Substrate Reagent was added and incubated protected from light for 5 to 10 minutes. Plates were read in luminescence mode and IC50 values calculated.
For orientation: An ELISA detects its analyte on a solid surface through an enzyme-linked reagent.

Another assay has as its target CDK6/Cyclin D3 (Homo sapiens (Human), UniProt Q00534). The assay can be described thus: CDK6/Cyclin D3 mobility shift assay. Type of assay: biochemical. Conditions: activated CDK6/Cyclin D3, 3.5 mM ATP, Morrison fit; read-out: CDK6_D3 Ki. Here is the method:
The purpose of the CDK6/Cyclin D3 assay is to evaluate the inhibition (% inhibition, Kiapp and Ki values) in the presence of small molecule inhibitors by using a fluorescence based microfluidic mobility shift assay. […] The mobility shift assay electrophoretically separates the fluorescently labeled peptides (substrate and phosphorylated product) following the kinase reaction. Both substrate and product are measured and the ratio of these values is used to generate % conversion of substrate to product by the LabChip EZ Reader.
The reaction was stopped after 95 minutes by the addition of 50 μL of 30 mM EDTA. Ki determinations were made from a plot of the fractional velocity as a function of inhibitor concentration fit to the Morrison equation with the enzyme concentration as a variable.
as §1

Drawing on patent US10766884B2 (Pfizer Inc., priority 2018, dated 2020), this text covers Ki and IC50 for 22 compounds.

SMILES strings stand for the structures.

CDK6/Cyclin D3, sequence (Q00534 whole entry): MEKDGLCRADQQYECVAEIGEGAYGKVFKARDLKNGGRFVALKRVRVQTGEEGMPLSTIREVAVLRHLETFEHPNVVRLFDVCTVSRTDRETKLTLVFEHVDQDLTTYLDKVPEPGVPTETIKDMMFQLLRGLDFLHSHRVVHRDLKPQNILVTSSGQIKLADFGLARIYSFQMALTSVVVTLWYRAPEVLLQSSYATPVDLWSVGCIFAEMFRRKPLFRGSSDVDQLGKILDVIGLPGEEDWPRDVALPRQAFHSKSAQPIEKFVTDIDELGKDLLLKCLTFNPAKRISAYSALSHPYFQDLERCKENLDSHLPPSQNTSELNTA
CDK6/Cyclin D3, sequence (P30281 whole entry partner): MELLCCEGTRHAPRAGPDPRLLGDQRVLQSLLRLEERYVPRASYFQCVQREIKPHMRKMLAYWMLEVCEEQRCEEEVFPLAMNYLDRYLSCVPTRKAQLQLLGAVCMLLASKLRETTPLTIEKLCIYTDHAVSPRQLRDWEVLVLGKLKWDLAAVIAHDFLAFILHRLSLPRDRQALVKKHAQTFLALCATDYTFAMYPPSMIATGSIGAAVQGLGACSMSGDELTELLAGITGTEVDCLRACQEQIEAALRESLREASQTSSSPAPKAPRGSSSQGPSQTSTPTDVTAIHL
CDK4/Cyclin D1, sequence (P11802 whole entry): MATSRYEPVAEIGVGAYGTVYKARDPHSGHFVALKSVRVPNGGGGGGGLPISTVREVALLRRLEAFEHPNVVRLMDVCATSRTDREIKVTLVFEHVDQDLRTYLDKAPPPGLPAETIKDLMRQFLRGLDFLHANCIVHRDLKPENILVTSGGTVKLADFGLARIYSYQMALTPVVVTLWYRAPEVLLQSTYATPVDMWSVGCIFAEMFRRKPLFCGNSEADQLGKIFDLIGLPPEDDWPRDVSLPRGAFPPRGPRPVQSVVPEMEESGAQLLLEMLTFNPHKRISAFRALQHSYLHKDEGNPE
CDK4/Cyclin D1, sequence (P24385 whole entry partner): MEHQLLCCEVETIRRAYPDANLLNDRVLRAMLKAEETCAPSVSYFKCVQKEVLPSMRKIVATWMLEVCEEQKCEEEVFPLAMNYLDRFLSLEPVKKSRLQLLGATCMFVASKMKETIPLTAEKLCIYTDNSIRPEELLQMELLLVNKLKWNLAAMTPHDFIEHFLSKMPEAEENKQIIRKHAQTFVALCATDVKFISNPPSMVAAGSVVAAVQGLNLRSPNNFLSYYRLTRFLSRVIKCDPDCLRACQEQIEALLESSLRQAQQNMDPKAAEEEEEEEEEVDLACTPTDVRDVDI
CDK4, sequence (P11802 2-303): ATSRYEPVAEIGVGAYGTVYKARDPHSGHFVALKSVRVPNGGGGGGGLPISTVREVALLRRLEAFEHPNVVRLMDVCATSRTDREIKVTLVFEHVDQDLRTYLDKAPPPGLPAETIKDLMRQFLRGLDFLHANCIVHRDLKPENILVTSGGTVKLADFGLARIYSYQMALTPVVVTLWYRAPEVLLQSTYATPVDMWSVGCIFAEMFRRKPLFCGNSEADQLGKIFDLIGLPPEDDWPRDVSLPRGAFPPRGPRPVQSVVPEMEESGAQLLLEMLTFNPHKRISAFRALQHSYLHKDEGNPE
CDK4, sequence (P24385 whole entry partner): as the sequence (P24385 whole entry partner) above

Take `CC(C)n1cnc2c(F)cc(-c3nc(N[C@@H]4CCN(C(=O)C5COC5)C[C@H]4O)ncc3Cl)cc21` [Example F18, [(3R,4R)-4-({5-chloro-4-[4-fluoro-1-(propan-2-yl)-1H-benzimidazol-6-yl]pyrimidin-2-yl}amino)-3-hydroxypiperidin-1-yl](oxetan-3-yl)methanone]: the results for the Ki on CDK4/Cyclin D1 and on CDK6/Cyclin D3 were 0.9 nM and 10.1 nM, respectively. On CDK4, the IC50 stood at 31.7 nM.
As for `CC(C)n1c([C@@H](C)O)nc2c(F)cc(-c3nc(N[C@@H]4CCN(S(C)(=O)=O)C[C@H]4O)ncc3Cl)cc21` [Example A93, (3R,4R)-4-[(5-chloro-4-{4-fluoro-2-[(1R)-1-hydroxyethyl]-1-(propan-2-yl)-1H-benzimidazol-6-yl}pyrimidin-2-yl)amino]-1-(methanesulfonyl)piperidin-3-ol], at CDK4/Cyclin D1, the Ki was 0.2 nM. Moreover, at CDK4, the concentration for half-maximal inhibition (IC50) is 34.7 nM.
The like results for `CC(C)n1c([C@@H](C)O)nc2c(F)cc(-c3nc(N[C@@H]4CCN(S(C)(=O)=O)C[C@@H]4O)ncc3Cl)cc21` (single isomer, unassigned) [Example F11] were, in that order, 5.4 nM and 821 nM.
For `CS(=O)(=O)N1CC[C@@H](Nc2ncc(Cl)c(-c3cc(F)c4nc(CO)n(C5CCC5)c4c3)n2)[C@H](O)C1` [Example A65, (3R,4R)-4-({5-chloro-4-[1-cyclobutyl-4-fluoro-2-(hydroxymethyl)-1H-benzimidazol-6-yl]pyrimidin-2-yl}amino)-1-(methanesulfonyl)piperidin-3-ol], the Ki on CDK4/Cyclin D1 was 0.6 nM; at CDK6/Cyclin D3 it was 3.5 nM.
As to `CC(C)n1c([C@@H](C)O)nc2c(F)cc(-c3cc(N[C@@H]4CCN(S(C)(=O)=O)C[C@H]4O)ncc3Cl)cc21` [Example D03, (3R,4R)-4-[(5-chloro-4-{4-fluoro-2-[(1R)-1-hydroxyethyl]-1-(propan-2-yl)-1H-benzimidazol-6-yl}pyridin-2-yl)amino]-1-(methanesulfonyl)piperidin-3-ol], the Ki at CDK4/Cyclin D1 came to 0.6 nM; at CDK6/Cyclin D3, 4.7 nM.
The like results for `CC(C)(O)c1nc2c(F)cc(-c3nc(N[C@@H]4CCOC[C@H]4O)ncc3Cl)cc2n1CC(F)F` [Example A67, 1,5-anhydro-3-({5-chloro-4-[1-(2,2-difluoroethyl)-4-fluoro-2-(2-hydroxypropan-2-yl)-1H-benzimidazol-6-yl]pyrimidin-2-yl}amino)-2,3-dideoxy-D-threo-pentitol] were, in that order, 1.4 nM and 15.5 nM.
The like results for `COc1cnc(N[C@@H]2CCN(S(C)(=O)=O)C[C@H]2O)nc1-c1cc(F)c2nc(C)n(C(C)C)c2c1` [Example A82, (3R,4R)-4-({4-[4-fluoro-2-methyl-1-(propan-2-yl)-1H-benzimidazol-6-yl]-5-methoxypyrimidin-2-yl}amino)-1-(methanesulfonyl)piperidin-3-ol] were, in that order, 3.8 nM and 24.6 nM.
For `CC(C)(F)Cn1c(CO)nc2c(F)cc(-c3nc(N[C@@H]4CCOC[C@H]4O)ncc3Cl)cc21` [Example A64, 1,5-anhydro-3-({5-chloro-4-[4-fluoro-1-(2-fluoro-2-methylpropyl)-2-(hydroxymethyl)-1H-benzimidazol-6-yl]pyrimidin-2-yl}amino)-2,3-dideoxy-D-threo-pentitol], the results for the Ki at CDK4/Cyclin D1 and on CDK6/Cyclin D3 were 2 nM and 10.7 nM, respectively.
Consider `COC(=O)N1CC[C@@H](Nc2ncc(Cl)c(-c3cc(F)c4ncn(C5CCOC5)c4c3)n2)[C@H](O)C1` (single isomer, unassigned) [Example F03], for which the Ki on CDK4/Cyclin D1 turned out to be 2.7 nM; on CDK6/Cyclin D3 it was 26.4 nM.
The like results for `CN1CCC(Nc2ncc(F)c(-c3cc(F)c4ncn(C(C)(C)C)c4c3)n2)CC1` [Example A03] were, in that order, 4 nM and 17.3 nM.
As for `Cc1nc2c(F)cc(-c3nc(N[C@H]4CCN(S(C)(=O)=O)C[C@@H]4O)ncc3F)cc2n1C(C)C` [Example F14, (3S,4S)-4-({5-fluoro-4-[4-fluoro-2-methyl-1-(propan-2-yl)-1H-benzimidazol-6-yl]pyrimidin-2-yl}amino)-1-(methanesulfonyl)piperidin-3-ol], the Ki on CDK4/Cyclin D1 was found to be 3.6 nM; on CDK6/Cyclin D3, 30.8 nM.
In the case of `CC1(C)CNCc2nc3c(F)cc(-c4nc(N[C@@H]5CCOC[C@H]5O)ncc4Cl)cc3n21` [Example A46, 1,5-anhydro-3-{[5-chloro-4-(9-fluoro-4,4-dimethyl-1,2,3,4-tetrahydropyrazino[1,2-a]benzimidazol-7-yl)pyrimidin-2-yl]amino}-2,3-dideoxy-D-threo-pentitol], the values for the Ki at CDK4/Cyclin D1 and at CDK6/Cyclin D3 were 2.3 nM and 40.5 nM, respectively.
For `CC(C)n1c([C@@H](C)O)nc2c(F)cc(-c3nc(N[C@@H]4CCNC[C@H]4O)ncc3Cl)cc21` [Example A50, (3R,4R)-4-[(5-chloro-4-{4-fluoro-2-[(1R)-1-hydroxyethyl]-1-(propan-2-yl)-1H-benzimidazol-6-yl}pyrimidin-2-yl)amino]piperidin-3-ol], the inhibition constant Ki on CDK4/Cyclin D1 came to 17 nM; on CDK6/Cyclin D3 it was 110 nM.
Turning to `CN1Cc2nc3c(F)cc(-c4nc(N[C@@H]5CCOC[C@H]5O)ncc4Cl)cc3n2C(C)(C)C1` [Example A22], the figures for the Ki at CDK4/Cyclin D1 and at CDK6/Cyclin D3 were 3.2 nM and 49.7 nM, respectively.
In the case of `CC(C)n1c(C2CCO2)nc2c(F)cc(-c3nc(N[C@@H]4CCN(S(C)(=O)=O)C[C@H]4O)ncc3Cl)cc21` (single isomer, unassigned) [Example A32], the figures for the Ki on CDK4/Cyclin D1 and on CDK6/Cyclin D3 were 0.9 nM and 7.1 nM, respectively.
The like results for `CNCC(=O)N1CC[C@@H](Nc2ncc(Cl)c(-c3cc(F)c4ncn(C(C)C)c4c3)n2)[C@H](O)C1` [Example F24, 1-[(3R,4R)-4-({5-chloro-4-[4-fluoro-1-(propan-2-yl)-1H-benzimidazol-6-yl]pyrimidin-2-yl}amino)-3-hydroxypiperidin-1-yl]-2-(methylamino)ethan-1-one] were, in that order, 2.1 nM and 19.9 nM.
As to `C[C@@H](N)c1nc2c(F)cc(-c3nc(N[C@@H]4CCOC[C@H]4O)ncc3Cl)cc2n1C(C)(C)C` [Example A42, 3-[(4-{2-[(1R)-1-aminoethyl]-1-tert-butyl-4-fluoro-1H-benzimidazol-6-yl}-5-chloropyrimidin-2-yl)amino]-1,5-anhydro-2,3-dideoxy-D-threo-pentitol], the inhibitory constant (Ki) on CDK4/Cyclin D1 turned out to be 6 nM; at CDK6/Cyclin D3 it was 54.7 nM.
The corresponding values for `CC(C)n1c(C(N)=O)nc2c(F)cc(-c3nc(N[C@@H]4CCOC[C@H]4O)ncc3Cl)cc21` [Example A33] are 8.3 nM and 78 nM.
Regarding `CC(O)c1nc2c(F)cc(-c3nc(N[C@@H]4CCN(S(=O)(=O)C(F)F)C[C@H]4O)ncc3Cl)cc2n1C(C)C` (stereo partly drawn) [Example F10, (3R,4R)-4-({5-chloro-4-[4-flluoro-2-(1-hydroxyethyl)-1-(propan-2-yl)-1H-benzimidazol-6-yl]pyrimidin-2-yl}amino)-1-(difluoromethanesulfonyl)piperidin-3-ol], the Ki at CDK4/Cyclin D1 is 0.5 nM. Further, the IC50 at CDK4 amounted to 41.3 nM.
Turning to `Cc1nc2c(F)cc(-c3nc(N[C@@H]4CCN(S(C)(=O)=O)C[C@H]4O)ncc3Cl)cc2n1C1CC1` [Example A72, (3R,4R)-4-{[5-chloro-4-(1-cyclopropyl-4-fluoro-2-methyl-1H-benzimidazol-6-yl)pyrimidin-2-yl]amino}-1-(methanesulfonyl)piperidin-3-ol], the Ki was 0.3 nM at CDK4/Cyclin D1 and 2.1 nM on CDK6/Cyclin D3.
With `CC1CNCc2nc3c(F)cc(-c4nc(N[C@@H]5CCOC[C@H]5O)ncc4Cl)cc3n21` (single isomer, unassigned) [Example A56, 1,5-anhydro-3-{[5-chloro-4-(9-fluoro-4-methyl-1,2,3,4-tetrahydropyrazino[1,2-a]benzimidazol-7-yl)pyrimidin-2-yl]amino}-2,3-dideoxy-D-threo-pentitol], the inhibition constant Ki on CDK4/Cyclin D1 is 1.3 nM; at CDK6/Cyclin D3, 9.6 nM.
The like results for `CNC(=O)c1nc2c(F)cc(-c3nc(N[C@@H]4CCOC[C@H]4O)ncc3Cl)cc2n1C(C)C` [Example A34] were, in that order, 11.1 nM and 102 nM.

By Ki is commonly meant the equilibrium dissociation constant of an inhibitor or competing ligand from its target. The term IC50 denotes the point on the concentration scale where inhibition reaches its midpoint.
